Laboratory results as given in patent publication EP4603105A1, “PHARMACEUTICAL COMPOSITION CONTAINING CYCLIC COMPOUND HAVING SELECTIVE KRAS INHIBITORY EFFECT AGAINST HRAS AND NRAS” (CHUGAI SEIYAKU KABUSHIKI KAISHA, priority 2022, dated 2024).
Where two headings read alike, the source gives them in different places.

Key:
[1] = target: GDP-bound NRAS wild-type protein (Homo sapiens, UniProt P01111); experiment: Binding to NRAS by surface plasmon resonance (SPR), KD and KD ratio to KRAS; conditions: ratio of KD for GDP-bound NRAS wild-type protein to KD for KRAS
Chain of GDP-bound NRAS wild-type protein (P01111 whole entry): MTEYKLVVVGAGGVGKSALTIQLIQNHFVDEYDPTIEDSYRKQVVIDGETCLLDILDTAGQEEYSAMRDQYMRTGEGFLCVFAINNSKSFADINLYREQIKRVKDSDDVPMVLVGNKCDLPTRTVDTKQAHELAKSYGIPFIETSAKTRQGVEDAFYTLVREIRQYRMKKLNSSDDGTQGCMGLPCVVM
How it was run: (§1)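 Single-cycle kinetics on GDP-loaded biotin-Avi RAS captured to ~100–300 RU; 75 s ascending injections, 100 µL/min, 30°C. HBS pH 7.4 + 10 mM MgCl2/10 µM GDP/4% DMSO. 1:1 fit, KD.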

HRAS wild-type protein = HRAS wild-type protein (Homo sapiens, UniProt P01112); experiment: Binding to HRAS by surface plasmon resonance (SPR), KD and KD ratio to KRAS; conditions: ratio of KD for HRAS wild-type protein to KD for KRAS
Chain of HRAS wild-type protein (P01112 whole entry): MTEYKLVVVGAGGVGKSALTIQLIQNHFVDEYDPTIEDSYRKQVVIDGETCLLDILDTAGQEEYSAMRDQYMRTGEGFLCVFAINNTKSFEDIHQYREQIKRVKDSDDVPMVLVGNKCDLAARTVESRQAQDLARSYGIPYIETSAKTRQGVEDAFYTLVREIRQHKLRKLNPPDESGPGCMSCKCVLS
How it was run: as §1

[2] = system: human lung cancer strain NCI-H441; type: cell-based
How it was run: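 Proliferation was scored by […] measured after the reagent was added to cultures kept at 37°C in 5% carbon dioxide.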

[3] = NCI-H441 cells, 4 days, CellTiter-Glo, read-out: NCl-H441 IC50

Row | Compound | NRAS /KRAS [1] | HRAS /KRAS (HRAS wild-type protein) | IC50 [2] [nM] | IC50 [2, 3] [nM]
1 | CCC(CC)[C@H]1C(=O)N(C)[C@H](C(=O)N(C)C)CC(=O)N(C)[C@H]2CCC/C=C/c3ccc(cc3)C[C@@H](C(=O)N(C)CC(=O)N[C@@H](CCc3cc(F)c(C(F)(F)F)c(F)c3)C(=O)N3CCC[C@H]3C(=O)NC3(CC(C)(C)C3)C(=O)N1C)N1CC/C=C\C[C@@H](C1=O)N(C)C(=O)CN(C)C(=O)[C@H]([C@@H](C)CC)NC2=O [PP2600] | A (a compound having 10 or more and less than 20 is denoted as A) | A (a compound having 10 or more and less than 20 is denoted as A) | 2.9 | –
2 | CC[C@H](C)[C@@H]1NC(=O)[C@@H]2CCC/C=C/c3ccc(cc3)C[C@@H](C(=O)N(C)CC(=O)N[C@@H](CCc3ccc(Cl)c(Cl)c3)C(=O)N3CCC[C@H]3C(=O)NC3(CC(C)(C)C3)C(=O)N(C)[C@@H](C3CCCC3)C(=O)N(C)[C@H](C(=O)N(C)CC)CC(=O)N2C)N2CC/C=C\C[C@@H](C2=O)N(C)C(=O)CN(C)C1=O [PP2601] | A (a compound having 10 or more and less than 20 is denoted as A) | A (a compound having 10 or more and less than 20 is denoted as A) | 8.9 | –
3 | CC[C@H](C)[C@@H]1NC(=O)[C@@H]2CCC/C=C/c3ccc(cc3)C[C@@H](C(=O)N(C)CC(=O)N[C@@H](CCc3ccc(Cl)c(Cl)c3)C(=O)N3CCC[C@H]3C(=O)NC3(CC(C)(C)C3)C(=O)N(C)[C@@H](C3CCCC3)C(=O)N(C)[C@H](C(=O)N3CCCC3)CC(=O)N2C)N2CC/C=C\C[C@@H](C2=O)N(C)C(=O)CN(C)C1=O [PP2602] | A (a compound having 10 or more and less than 20 is denoted as A) | A (a compound having 10 or more and less than 20 is denoted as A) | 12.8 | –
4 | CCC(CC)[C@H]1C(=O)N(C)[C@H](C(=O)N(C)C)CC(=O)N(C)[C@H]2CCC/C=C/c3ccc(cc3)C[C@@H](C(=O)N(C)CC(=O)N[C@@H](CCc3ccc(Cl)c(Cl)c3)C(=O)N3CCC[C@H]3C(=O)NC3(CC(C)(C)C3)C(=O)N1C)N1CC/C=C\C[C@@H](C1=O)N(C)C(=O)CN(C)C(=O)[C@H]([C@@H](C)CC)NC2=O [PP2603] | AA (a compound having 20 or more is denoted as AA) | A (a compound having 10 or more and less than 20 is denoted as A) | 25.7 | –
5 | CCC(CC)[C@H]1C(=O)N(C)[C@H](C(=O)N2CCCC2)CC(=O)N(C)[C@H]2CCC/C=C/c3ccc(cc3)C[C@@H](C(=O)N(C)CC(=O)N[C@@H](CCc3ccc(Cl)c(Cl)c3)C(=O)N3CCC[C@H]3C(=O)NC3(CC(C)(C)C3)C(=O)N1C)N1CC/C=C\C[C@@H](C1=O)N(C)C(=O)CN(C)C(=O)[C@H]([C@@H](C)CC)NC2=O [PP2604] | AA (a compound having 20 or more is denoted as AA) | A (a compound having 10 or more and less than 20 is denoted as A) | 20.8 | –
6 | CCO[C@@H]1C[C@H]2C(=O)NC3(CCC3)C(=O)N(C)[C@@H](C3CCCC3)C(=O)N(C)[C@H](C(=O)N(C)C)CC(=O)N(C)[C@@H](CC3CCCC3)C(=O)N[C@@H]([C@@H](C)CC)C(=O)N(C)CC(=O)N(C)[C@H]3C/C=C\CCN(C3=O)[C@@H](Cc3ccc(C)cc3)C(=O)N(C)CC(=O)N[C@@H](CCc3cc(F)c(CC)c(OC)c3)C(=O)N2C1 [PP2674] | A (a compound having 10 or more and less than 20 is denoted as A) | A (a compound having 10 or more and less than 20 is denoted as A) | 48.6 | –
7 | CCO[C@@H]1C[C@H]2C(=O)NC3(CCC3)C(=O)N(C)[C@@H](C3CCCC3)C(=O)N(C)[C@H](C(=O)N(C)C)CC(=O)N(C)[C@@H](CC3CCCC3)C(=O)N[C@@H]([C@@H](C)CC)C(=O)N(C)CC(=O)N(C)[C@H]3C/C=C\CCN(C3=O)[C@@H](Cc3ccc(C)cc3)C(=O)N(C)CC(=O)N[C@@H](CCc3cc(C)c(C(F)F)c(C)c3)C(=O)N2C1 [PP2675] | A (a compound having 10 or more and less than 20 is denoted as A) | A (a compound having 10 or more and less than 20 is denoted as A) | 138 | –
8 | CCO[C@@H]1C[C@H]2C(=O)NC3(CCC3)C(=O)N(C)[C@@H](C3CCCC3)C(=O)N(C)[C@H](C(=O)N(C)C)CC(=O)N(C)[C@@H](CC3CCCC3)C(=O)N[C@@H]([C@@H](C)CC)C(=O)N(C)CC(=O)N(C)[C@H]3C/C=C\CCN(C3=O)[C@@H](Cc3ccc(C)cc3)C(=O)N(C)CC(=O)N[C@@H](CCc3cc(C)c(C(F)F)c(F)c3)C(=O)N2C1 [PP2676] | A (a compound having 10 or more and less than 20 is denoted as A) | A (a compound having 10 or more and less than 20 is denoted as A) | 60.8 | –
9 | CCO[C@@H]1C[C@H]2C(=O)NC3(CCC3)C(=O)N(C)[C@@H](C3CCCC3)C(=O)N(C)[C@H](C(=O)N(C)C)CC(=O)N(C)[C@@H](CC3CCCC3)C(=O)N[C@@H]([C@@H](C)CC)C(=O)N(C)CC(=O)N(C)[C@H]3C/C=C\CCN(C3=O)[C@@H](Cc3ccc(C)cc3)C(=O)N(C)CC(=O)N[C@@H](CCc3cc(C)c(C(F)F)c(Cl)c3)C(=O)N2C1 [PP2677] | A (a compound having 10 or more and less than 20 is denoted as A) | A (a compound having 10 or more and less than 20 is denoted as A) | 70.6 | –
10 | CCO[C@@H]1C[C@H]2C(=O)NC3(CCC3)C(=O)N(C)[C@@H](C3CCCC3)C(=O)N(C)[C@H](C(=O)N(C)C)CC(=O)N(C)[C@@H](CC3CCCC3)C(=O)N[C@@H]([C@@H](C)CC)C(=O)N(C)CC(=O)N(C)[C@H]3C/C=C\CCN(C3=O)[C@@H](Cc3ccc(C)cc3)C(=O)N(C)CC(=O)N[C@@H](CCc3cc(Cl)c(C(F)(F)F)c(Cl)c3)C(=O)N2C1 [PP2679] | A (a compound having 10 or more and less than 20 is denoted as A) | A (a compound having 10 or more and less than 20 is denoted as A) | 17.7 | –
11 | CCO[C@@H]1C[C@H]2C(=O)NC3(CCC3)C(=O)N(C)[C@@H](C3CCCC3)C(=O)N(C)[C@H](C(=O)N(C)C)CC(=O)N(C)[C@@H](CC3CCCC3)C(=O)N[C@@H]([C@@H](C)CC)C(=O)N(C)CC(=O)N(C)[C@H]3C/C=C\CCN(C3=O)[C@@H](Cc3ccc(C)cc3)C(=O)N(C)CC(=O)N[C@@H](CCc3ccc(C4CC4)c(F)c3)C(=O)N2C1 [PP2683] | A (a compound having 10 or more and less than 20 is denoted as A) | A (a compound having 10 or more and less than 20 is denoted as A) | 63.3 | –
12 | CCO[C@@H]1C[C@H]2C(=O)NC3(CCC3)C(=O)N(C)[C@@H](C3CCCC3)C(=O)N(C)[C@H](C(=O)N(C)C)CC(=O)N(C)[C@@H](CC3CCCC3)C(=O)N[C@@H]([C@@H](C)CC)C(=O)N(C)CC(=O)N(C)[C@H]3C/C=C\CCN(C3=O)[C@@H](Cc3ccc(C)cc3)C(=O)N(C)CC(=O)N[C@@H](CCc3ccc(C4CC4)c(C)c3)C(=O)N2C1 [PP2685] | A (a compound having 10 or more and less than 20 is denoted as A) | A (a compound having 10 or more and less than 20 is denoted as A) | 133 | –
13 | CCO[C@@H]1C[C@H]2C(=O)NC3(CC(C)(C)C3)C(=O)N(C)[C@@H](C3CCCC3)C(=O)N(C)[C@H](C(=O)N(C)C)CC(=O)N(C)[C@@H](CC(C)C)C(=O)N[C@@H]([C@@H](C)CC)C(=O)N(C)CC(=O)N(C)[C@H]3C/C=C\CCN(C3=O)[C@@H](Cc3ccc(C)cc3F)C(=O)N(C)CC(=O)N[C@@H](CCc3ccc(C(F)(F)F)c(OC)c3)C(=O)N2C1 [PP2688] | A (a compound having 10 or more and less than 20 is denoted as A) | B (a compound having 3 or more and less than 10 is denoted as B) | 6.9 | –
14 | CCO[C@@H]1C[C@H]2C(=O)NC3(CC(C)(C)C3)C(=O)N(C)[C@@H](C3CCCC3)C(=O)N(C)[C@H](C(=O)N(C)C)CC(=O)N(C)[C@@H](CC(C)C)C(=O)N[C@@H]([C@@H](C)CC)C(=O)N(C)CC(=O)N(C)[C@H]3C/C=C\CCN(C3=O)[C@@H](Cc3ccc(C)c(F)c3)C(=O)N(C)CC(=O)N[C@@H](CCc3ccc(C(F)(F)F)c(OC)c3)C(=O)N2C1 [PP2689] | A (a compound having 10 or more and less than 20 is denoted as A) | B (a compound having 3 or more and less than 10 is denoted as B) | – | 6.2
15 | CCO[C@@H]1C[C@H]2C(=O)NC3(CC(C)(C)C3)C(=O)N(C)[C@@H](C3CCCC3)C(=O)N(C)[C@H](C(=O)N(C)C)CC(=O)N(C)[C@@H](CC(C)C)C(=O)N[C@@H]([C@@H](C)CC)C(=O)N(C)CC(=O)N(C)[C@H]3C/C=C\CCN(C3=O)[C@@H](Cc3ccc(C(C)(F)F)cc3)C(=O)N(C)CC(=O)N[C@@H](CCc3ccc(C(F)(F)F)c(OC)c3)C(=O)N2C1 [PP2690] | AA (a compound having 20 or more is denoted as AA) | A (a compound having 10 or more and less than 20 is denoted as A) | – | 3
